{
  "source": "patent US9908877B2",
  "about": "“Imidazo[1,5-a]pyridinium ion fluorophores, and methods of making and using the same” (Indiana University Research and Technology Corporation, priority 2013, dated 2018)",
  "key": {"[1]": {"assay": "Fluorescence emission spectrum (maximum emission wavelength)", "type": "physicochemical", "experimental": "Method for Obtaining a Fluorescence Emission Spectrum\nFluorescence emission spectra are obtained and recorded on a QM-4-CW Spectrofluorometer using FeliX32 software (Photon Technology International, Inc., Birmingham, N.J.).\nThe compounds were analyzed at 298° K according to the Method for Obtaining Ultraviolet-Visible Light Spectrum (30 μM acetonitrile) to obtain the maximum absorbance wavelength (λabs,max), Method for Obtaining Fluorescence Emission Spectrum (30 μM acetonitrile) to obtain the maximum emission wavelength (λem,max) and Method for Determining Quantum Yield (ΦF) (30 μM acetonitrile) at the concentration, in the solvent, and with the counter ion indicated in Table 1. The compounds included hydrogen at each R group that is not otherwise specified.\nCompounds 6, 7, 9, 11-14 and 21 were analyzed according to: the Method for Obtaining Ultraviolet-Visible Light Spectrum to obtain the maximum absorbance wavelength (λabs,max), the Method for Obtaining Fluorescence Emission Spectrum to obtain the maximum emission wavelength (λem,max), and the Method for Determining Quantum Yield (ΦF) in the solvent and with the counter ion indicated in Table 3."}, "[2]": {"assay": "Fluorescence response to pH in buffered water", "type": "physicochemical", "conditions": "buffered water, 298 K, pH from 7.5 to 2.5", "experimental": "Stock solutions of each compound (having a concentration of from 1-5 mM) were prepared by dissolving the corresponding salts of the compounds in methanol or 1V, N-dimethylformamide, and then diluting the same with acetonitrile or buffered water having a pH of from 2.5 to 7.5 derived from 0.2 M […] and 0.1 M citric acid, to achieve a sample solution having a compound concentration of 30.0 μM.\nThe emission spectrum for each sample was obtained. The results are illustrated by the plot in FIG. 2A.\nThe emission spectrum for each sample was obtained. […] The results are illustrated in the plot of FIG. 2B.\nThe fluorescence emission spectrum of Compound 8 in water having a pH of 2.5 was also obtained and is illustrated by the curved line with a peak at 360 nm in FIG. 5B.\nCompounds 10, 11, and 12 were each individually added, at a concentration of 30 μM, to water having a pH=7.5 and the emission spectra of each were obtained. […] As the pH was decreased from 7.5 to 2.5 in 0.5 pH unit increments, fluorescence emission at 600 nm remained relatively nonexistent and the intensity of the fluorescence emission at 400 nm increased in correlation to the decrease in pH. FIG. 8A illustrates the emission properties of Compound 12."}},
  "data": [
    {"compound": "CCN(CC)c1ccc(-c2c3cccc[n+]3cn2-c2ccc(OC)cc2)cc1.[Cl-]", "note": "[Compound 6, 1-(4-(diethylamino)phenyl)-2-(4-methoxyphenyl)-2H-imidazo[1,5-a]pyridin-4-ium chloride]", "values": [
      {"measurement": "λem, max Em", "setting": "[1]; H2O (pH not given), 30 μM", "value": 580, "unit": "nm"},
      {"measurement": "λem, max Em", "setting": "[1]; H2O pH = 2.5, 30 μM", "value": 400, "unit": "nm"},
      {"measurement": "λem, max Em", "setting": "[1]; MeCN + 13.8 uL TFA, 30 μM", "value": 405, "unit": "nm"},
      {"measurement": "λem, max Em", "setting": "[1]; MeCN, 30 μM", "value": 565, "unit": "nm"},
      {"measurement": "λem,max of the emission that decreases as pH decreases", "setting": "[2]", "value": 580, "unit": "nm"},
      {"measurement": "λem,max of the emission that increases as pH decreases", "setting": "[2]", "value": 400, "unit": "nm"}
    ]}
  ]
}
